Experimental data reported in patent US20220274967A1, “BCAT MODULATION” (Icagen, LLC, priority 2019, published 2022).
Where two headings read alike, the source gives them in different places.

What was measured:
BCAT2 = target: T1, BCAT2 (Homo sapiens, UniProt O15382); assay: BCAT2 enzyme inhibition (human); type: biochemical
T1 sequence (O15382 28-392): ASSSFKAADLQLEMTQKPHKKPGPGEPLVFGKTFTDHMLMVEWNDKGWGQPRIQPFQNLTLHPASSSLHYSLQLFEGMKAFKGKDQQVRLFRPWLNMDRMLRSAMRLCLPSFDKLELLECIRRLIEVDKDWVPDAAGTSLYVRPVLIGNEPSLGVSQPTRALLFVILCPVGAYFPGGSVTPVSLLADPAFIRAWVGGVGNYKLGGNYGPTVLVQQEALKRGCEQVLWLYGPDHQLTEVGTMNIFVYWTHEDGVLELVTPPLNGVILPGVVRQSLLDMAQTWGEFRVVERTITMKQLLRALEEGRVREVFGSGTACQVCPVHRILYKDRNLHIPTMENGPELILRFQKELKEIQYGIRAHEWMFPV
Procedure: In further embodiments, the functional modulation of BCAT2 is assayed using a cell-free assay. In various embodiments, the cell-free assay is an enzyme-coupled fluorescent assay. For example, the disclosure contemplates use of an assay that monitors the production of L-glutamate from branch-chain amino acids and α-ketoglutarate through the coupling of hBCATm activity to two additional enzymes, L-Glutamate Oxidase (L-GOx) and Horseradish Peroxidase (HRP). Specifically, L-GOx catabolizes L-glutamate to generate α-ketoglutarate and […], the latter being utilized by HRP and leading to the formation of fluorescent resorufin from the redox-sensitive dye Amplex Red. In some embodiments, the test compound is classified as a candidate compound if a decrease in L-glutamate is measured. In further embodiments, the test compound is classified as a candidate compound if a decrease in α-ketoglutarate is measured.

GM00371 cells = assay: Viability assay (Cell titer glo) in the 3-HIB assay; type: cell-based, human; details: read-out: 3HIB INHIBITION IC50 (μM) MEAN GM00371 cells Viablility Assay
Procedure: Cell Plating: Cells (Coriell Institute GM00371 cells) were plated (96-well clear bottom sterile plate; Greiner 655098) at 10,000 cells/0.1 mL in Eagle's minimum essential medium (EMEM)/15% FBS (Gibco 16000-044) with a Combi dispenser in a cell culture hood and incubated at 37° C. and 5% CO2 overnight.
Compound Dilution: Compound were prepared as 33.3× intermediate dilution in DMSO in 96 well round polystyrene plates. For 30 μM final maximum start with 30 μL of 10 mM in DMSO. 10-12 1:3 serial dilutions were prepared from left to right (20 μL+40 μL DMSO). A 10× secondary dilution was prepare in EMEM by taking 7.5 μL 33.3× and transfer to replicate 96 well round polystyrene plates and then adding 242.5 μL EMEM A 1× final dilution in EMEM was prepared by taking 50 μL 10× dilution and transferring to replicate 96 well polypropylene assay block (Costar 3956) and adding 450 μL EMEM A control was prepared for maximal compound inhibition by taking 20 μL 10 mM Reference Compound A and adding 40 μL DMSO for a concentration of 3.3 mM To 7.5 μL of the 3.3 mM Reference Compound A solution and added 242.5 μL EMEM to make a 100 μM solution. The subsequent Reference Compound A solution was diluted with EMEM to achieve a final concentration of 10 μM. The structure of Reference Compound A is:
A control was prepared for maximal compound toxicity by taking 7.5 μL Reference Compound B and 242.5 μL EMEM to make […]. 50 μL of that 100 μM Reference Compound B solution was combined with 450 μL EMEM to achieve a concentration of 30 μM. The structure of Reference Compound B is
Compound Treatment: Media was aspirated from the cells and 100 μL of D-PBS (ThermoFisher 14190144) was added and then removed. 100 μL of diluted compound was added to the cells in the place and the cells were incubated at 37° C. and 5% CO2 for 24 hours.
Viability Assay: To the cells remaining in the plate 25 μL D-PBS and 25 μL Cell titer glo reagent (Promega G7572). The plate was placed on a shaker for 2 minutes, incubated at room temperature in the dark and then read on a Clariostar microplate reader.

| Compound | IC50 (BCAT2) | IC50 (GM00371 cells; Homo sapiens, 24 h) | IC50 (GM00371 cells; 24 hours) |
| --- | --- | --- | --- |
| CNC(=O)c1ccc2c(c1)nc(-c1cc(Cl)ccc1O)n2[C@H]1CCC[C@@H](NC(=O)c2ccc(C#N)s2)C1 [Compound 179] | 100 to 500 nM |  |  |
| CNC(=O)c1cc2nc(-c3ccccn3)n([C@H]3CCC[C@@H](NC(=O)c4ccc(Br)s4)C3)c2cc1OC [Compound 211] | < 100 nM | 0.1 to 0.5 µM |  |
| CNC(=O)c1ccc2c(c1)nc(-c1cc(Cl)ccc1O)n2[C@H]1CCC[C@@H](NC(=O)c2ccc(Cl)s2)C1 [Compound 190] | 100 to 500 nM |  |  |
| CNC(=O)c1ccc2c(c1)nc(-c1ccccn1)n2[C@H]1CCC[C@@H](NC(=O)c2ccc(C(C)C)s2)C1 [Compound 146] | > 1000 nM | ≥ 1 µM |  |
| CNC(=O)c1ccc2c(c1)nc(-c1ccccn1)n2[C@@H]1CCC[C@H](NC(=O)c2ccc(C(C)=O)s2)C1 [Compound 121] | > 1000 nM | ≥ 1 µM |  |
| CNC(=O)c1ccc2c(c1)nc(-c1ccc(O)cn1)n2[C@H]1CCC[C@@H](NC(=O)c2ccc(Cl)s2)C1 [Compound 191] | > 1000 nM |  |  |
| CNC(=O)c1ccc2c(c1)nc(-c1ncccc1OC)n2[C@H]1CCC[C@@H](NC(=O)c2ccc(Br)s2)C1 [Compound 150] | > 1000 nM |  |  |
| COC(=O)c1ccc2c(n1)nc(-c1ccccn1)n2[C@H]1CCC[C@@H](NC(=O)c2cccs2)C1 [Compound 300] | > 1000 nM |  |  |
| CNC(=O)c1ccc2c(c1)nc(-c1ccc(OC)c(OC)c1)n2[C@H]1CCC[C@@H](NC(=O)c2ccc(Br)s2)C1 [Compound 158] | > 1000 nM |  |  |
| CNC(=O)c1ccc2c(c1)nc(-c1ccc(Cl)cc1)n2[C@H]1CCC[C@@H](NC(=O)c2ccc(Br)s2)C1 [Compound 164] | 100 to 500 nM |  |  |
| CNC(=O)c1ccc2c(c1)nc(-c1c(F)cccc1F)n2[C@H]1CCC[C@@H](NC(=O)c2ccc(Br)s2)C1 [Compound 215] | < 100 nM |  | 0.1 to 0.5 µM |
| CNC(=O)c1ccc2c(c1)nc(-c1ccccc1C(N)=O)n2[C@H]1CCC[C@@H](NC(=O)c2ccc(C#N)s2)C1 [Compound 142] | < 100 nM | ≥ 1 µM |  |
| CNC(=O)c1ccc2c(c1)nc(-c1ccc(C)cc1)n2[C@H]1CCC[C@@H](NC(=O)c2ccc(Br)s2)C1 [Compound 170] | 500 to 1000 nM |  |  |
| CNC(=O)c1ccc2c(c1)nc(-c1ccccc1N1CCOCC1)n2[C@H]1CCC[C@@H](NC(=O)c2ccc(Br)s2)C1 [Compound 159] | 100 to 500 nM |  |  |
| CNC(=O)c1ccc2c(c1)nc(-c1ccccn1)n2[C@@H]1CCC[C@H](NC(=O)c2ccc(-c3ccccc3)s2)C1 [Compound 111] | > 1000 nM | ≥ 1 µM |  |
| O=C(N[C@H]1CCC[C@@H](n2c(-c3ccccn3)nc3cc(CO)ccc32)C1)c1ccc(Br)s1 [Compound 119] | 100 to 500 nM |  |  |
| CNC(=O)c1cc2nc(-c3cccc(F)c3O)n([C@H]3CCC[C@@H](NC(=O)c4ccc(Br)s4)C3)c2cc1F [Compound 209] | < 100 nM | 0.1 to 0.5 µM |  |
| CNC(=O)c1ccc2c(c1)nc(-c1ccc(O)cn1)n2[C@H]1CCC[C@@H](NC(=O)c2ccc(Br)s2)C1 [Compound 186] | 100 to 500 nM |  |  |
| CNC(=O)c1ccc2c(c1)nc(-c1ccccn1)n2[C@@H]1CCC[C@H](NC(=O)c2coc(Br)n2)C1 [Compound 120] | > 1000 nM | ≥ 1 µM |  |
| CNC(=O)c1ccc2c(c1)nc(-c1cccc(C)n1)n2[C@H]1CCC[C@@H](NC(=O)c2ccc(Br)s2)C1 [Compound 148] | < 100 nM |  |  |
| CNC(=O)c1ccc2c(c1)nc(-c1ccc(C#N)cc1)n2[C@H]1CCC[C@@H](NC(=O)c2ccc(Br)s2)C1 [Compound 162] | > 1000 nM |  |  |
| CNC(=O)c1ccc2c(c1)nc(-c1ccccn1)n2[C@H]1CC[C@@H](NC(=O)c2ccc(Br)s2)C1 [Compound 132] | 100 to 500 nM | ≥ 1 µM |  |

| Compound | IC50 (BCAT2) | IC50 (GM00371 cells; Homo sapiens, 24 h) | IC50 (GM00371 cells; 24 hours) |
| --- | --- | --- | --- |
| CNC(=O)c1ccc2c(c1)nc(-c1cccc(C#N)c1)n2[C@H]1CCC[C@@H](NC(=O)c2ccc(Br)s2)C1 [Compound 165] | > 1000 nM |  |  |
| CNC(=O)c1ccc2c(c1)nc(-c1cccc(F)n1)n2[C@H]1CCC[C@@H](NC(=O)c2ccc(Br)s2)C1 [Compound 216] | < 100 nM | ≥ 1 µM |  |
| COC(=O)c1ccc2c(n1)nc(-c1ccccn1)n2[C@@H]1CCC[C@H](NC(=O)c2ccc(Br)s2)C1 [Compound 301] | 100 to 500 nM |  |  |
| CNC(=O)c1ccc2c(c1)nc(-c1ccccc1NC(C)=O)n2[C@H]1CCC[C@@H](NC(=O)c2ccc(C#N)s2)C1 [Compound 130] | 500 to 1000 nM |  |  |
| C=CC(=O)NCc1ccc(C(=O)N[C@H]2CCC[C@@H](n3c(-c4ccccn4)nc4cc(C(=O)NC)ccc43)C2)s1 [Compound 108] | > 1000 nM | ≥ 1 µM |  |
| CNC(=O)c1ccc2c(c1)nc(-c1cc(Cl)cc(C)c1O)n2[C@H]1CCC[C@@H](NC(=O)c2ccc(Br)s2)C1 [Compound 182] | > 1000 nM |  |  |
| CNC(=O)c1ccc2c(c1)nc(-c1ccccn1)n2[C@@H]1CCC[C@H](NC(=O)c2ccc(Br)o2)C1 [Compound 125] | > 1000 nM |  |  |
| C#Cc1cccc(-c2nc3cc(C(=O)NC)ccc3n2[C@H]2CCC[C@@H](NC(=O)c3ccc(Br)s3)C2)c1 [Compound 167] | > 1000 nM |  |  |
| CNC(=O)c1cc2nc(-c3sccc3C)n([C@H]3CCC[C@@H](NC(=O)c4ccc(Br)s4)C3)c2cc1F [Compound 210] | < 100 nM | ≥ 1 µM |  |
| CNC(=O)c1ccc2c(n1)nc(-c1ccccn1)n2[C@@H]1CCC[C@H](NC(=O)c2ccc(Br)s2)C1 [Compound 305] | > 1000 nM |  |  |
| COC(=O)c1ccc2c(c1)nc(-c1ccccn1)n2[C@@H]1CCC[C@H](NC(=O)c2cccs2)C1 [Compound 117] | > 1000 nM | ≥ 1 µM |  |
| CNC(=O)c1cc2nc(-c3ccccn3)n([C@H]3CCC[C@@H](NC(=O)c4ccc(Cl)s4)C3)c2cc1OC [Compound 214] | < 100 nM | 0.1 to 0.5 µM |  |
| CNC(=O)c1ccc2c(C3CCCC(NC(=O)c4ccc(-c5ccccc5)s4)C3)c(-c3ccccc3)[nH]c2c1 (stereo not shown) [Compound 304] | > 1000 nM | ≥ 1 µM |  |
| CNC(=O)c1ccc2c(c1)nc(-c1ccccn1)n2[C@@H]1CCC[C@H](NC(=O)c2ccc(C(=O)OC)s2)C1 [Compound 122] | > 1000 nM | ≥ 1 µM |  |
| CNC(=O)c1cc2nc(-c3ccccc3F)n([C@H]3CCC[C@@H](NC(=O)c4ccc(Br)s4)C3)c2cc1OC [Compound 213] | < 100 nM | < 0.1 µM |  |
| CNC(=O)c1ccc2c(c1)nc(-c1ccc(C)s1)n2[C@H]1CCC[C@@H](NC(=O)c2ccc(Br)s2)C1 [Compound 171] | 100 to 500 nM |  |  |
| CNC(=O)c1ccc2c(c1)nc(-c1ccc3c(c1)OC(F)(F)O3)n2[C@H]1CCC[C@@H](NC(=O)c2ccc(Br)s2)C1 [Compound 160] | > 1000 nM |  |  |
| CNC(=O)c1ccc2c(c1)nc(-c1csc3c1CCCC3)n2[C@H]1CCC[C@@H](NC(=O)c2ccc(Br)s2)C1 [Compound 168] | 500 to 1000 nM |  |  |
| CNC(=O)c1ccc2c(c1)nc(-c1ccc(C)cn1)n2[C@H]1CCC[C@@H](NC(=O)c2ccc(Br)s2)C1 [Compound 153] | 500 to 1000 nM |  |  |
| CNC(=O)c1ccc2c(c1)nc(-c1ccc(C#N)c(Cl)n1)n2[C@H]1CCC[C@@H](NC(=O)c2ccc(C#N)s2)C1 [Compound 187] | > 1000 nM |  |  |
| CNC(=O)c1ccc2c([C@H]3CCC[C@H](NC(=O)c4ccc(-c5ccccc5)s4)C3)c(-c3ccccc3)[nH]c2c1 [Compound 282] | > 1000 nM |  |  |
| CNC(=O)c1ccc2c(c1)nc(-c1ccccn1)n2[C@@H]1CCC[C@H](NC(=O)c2ccc(Br)cc2)C1 [Compound 114] | 100 to 500 nM |  |  |
